Source: patent US20250340510A1, “Substituted Phenylbenzenesulfonamide Derivatives and Uses Thereof” (Nine Square Therapeutics Corporation, priority 2022, published 2025)

Biological target: TRPML1 (Homo sapiens, UniProt Q9GZU1)
Experiment: Calcium flux in HEK293 overexpressing TRPML1 plasma membrane variant (FLIPR, Calcium 6 dye)
Assay type: cell-based
Settings: HEK293/TRPML1-PM clone A5 cells; 4-parameter logistic fit; read-out: TRPML1 calcium flux (FLIPR) dose response: EC50
From the text: Example B1. Calcium Flux in HEK293 Overexpressing TRPML1 Plasma Membrane Variant—Calcium 6 Dye
Cells: HEK293/TRPML1-PM clone A5, clonal cell line containing mutant TRPML1 (both N- and C-terminal dileucine targeting motifs deleted) that localizes to the plasma membrane
Plates: Perkin Elmer Viewplate cat. #6007460, black optically clear, tissue culture treated 384-well plate
Calcium dye: Molecular Devices FLIPR Calcium 6 Assay Kit, cat. #R8190 or Fluo-4 Direct from Thermo Fisher, cat. #F10471
Tips: Molecular Devices 384-well FLIPR Tetra black tips, cat. #9000-0764 Example B1.2 Method
HEK293/TRPML1-PM clone A5 cells were trypsinized from flasks, counted, then diluted in media to 15,000 cells per 25 μL, and seeded into a black, 384-well viewplate, and cultured overnight.
One vial of calcium 6 dye was diluted with 10 mL of assay buffer (HBSS+20 mM HEPES pH 7.4) and 25 μL of the dilution was added per well to the cells.
After incubating for 2 hours at 37° C., the plate was moved to the FLIPR in the read position.
The compounds were diluted in EMEM with 0.125% FBS to 5× concentration and loaded in a 384-well plate according to the desired plate map for the assay, including DMSO alone and carbachol controls, then the plate was moved to the FLIPR in the source 2 position.
A box of tips was placed in the source 1 position within the FLIPR to complete the assay set up.
Once the run was started, an initial baseline fluorescent measurement was performed for 10 seconds (470-495 nm excitation and 515-575 nm emission) prior to adding the compounds.
12.5 μL of 5× test compound, DMSO alone, or carbachol were added via the FLIPR and real-time fluorescence measurements were performed for an additional 170 seconds with 1 read per second.
The data was normalized to baseline by calculating maximum fluorescence minus minimum fluorescence and plotted as response (fold) over the baseline versus log ([…] concentration). The EC50 was determined using a 4-parameter logistic curve fit in Graphpad Prism 9.

TRPML1, sequence (Q9GZU1 17-572 limits assumed): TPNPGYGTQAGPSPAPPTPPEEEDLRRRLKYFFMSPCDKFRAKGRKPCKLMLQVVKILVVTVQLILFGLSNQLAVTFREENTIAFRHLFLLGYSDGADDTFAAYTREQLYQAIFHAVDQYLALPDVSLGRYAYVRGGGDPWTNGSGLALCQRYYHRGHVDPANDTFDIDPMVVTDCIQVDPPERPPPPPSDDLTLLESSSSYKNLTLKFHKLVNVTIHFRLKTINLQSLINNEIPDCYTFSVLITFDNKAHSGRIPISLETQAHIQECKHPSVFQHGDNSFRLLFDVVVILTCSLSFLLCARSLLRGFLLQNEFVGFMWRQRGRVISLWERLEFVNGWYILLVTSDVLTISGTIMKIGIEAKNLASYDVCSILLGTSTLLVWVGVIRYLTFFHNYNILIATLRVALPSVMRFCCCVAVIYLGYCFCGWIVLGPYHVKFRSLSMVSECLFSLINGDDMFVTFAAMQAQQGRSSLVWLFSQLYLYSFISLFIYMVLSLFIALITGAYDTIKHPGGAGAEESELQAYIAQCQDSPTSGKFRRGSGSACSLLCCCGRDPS

SMILES	EC50 [nM]
Cc1cc(CN(C)c2ccccc2NS(=O)(=O)c2ccc(S(=O)(=O)N(C)C)cc2)cc(C)n1 [Compound 48, N1-(2-(((2,6-dimethylpyridin-4-yl)methyl)(methyl)amino)phenyl)-N4,N4-dimethylbenzene-1,4-disulfonamide]	7450
CN(c1cc(Cl)ccc1NS(=O)(=O)c1ccc(S(=O)(=O)N(C)C)cc1)C1CCCCC1 [Compound 2, N1-(4-chloro-2-(cyclohexyl(methyl)amino)phenyl)-N4,N4-dimethylbenzene-1,4-disulfonamide]	3000
COCCCCN(C)c1ccccc1NS(=O)(=O)c1ccc(S(=O)(=O)N(C)C)cc1 [Compound 33, N1-(2-((4-methoxybutyl)(methyl)amino)phenyl)-N4,N4-dimethylbenzene-1,4-disulfonamide]	2740
CN(CC1CCC(C)(C)OC1)c1ccccc1NS(=O)(=O)c1ccc(S(=O)(=O)N(C)C)cc1 (centres unmarked) [Compound 32, N1-(2-(((6,6-dimethyltetrahydro-2H-pyran-3-yl)methyl)(methyl)amino)phenyl)-N4,N4-dimethylbenzene-1,4-disulfonamide]	810
CN(Cc1cnn(C2CC2)c1)c1ccccc1NS(=O)(=O)c1ccc(S(=O)(=O)N(C)C)cc1 [Compound 5, N1-(2-(((1-cyclopropyl-1H-pyrazol-4-yl)methyl)(methyl)amino)phenyl)-N4,N4-dimethylbenzene-1,4-disulfonamide]	2460
CN(c1ccccc1NS(=O)(=O)c1ccc(S(=O)(=O)N(C)C)cc1)C1CCNCC1 [Compound 22, N1,N1-dimethyl-N4-(2-(methyl(piperidin-4-yl)amino)phenyl)benzene-1,4-disulfonamide]	> 10000
CC(C)n1cnc(CN(C)c2ccccc2NS(=O)(=O)c2ccc(S(=O)(=O)N(C)C)cc2)c1 [Compound 31, N1-(2-(((1-isopropyl-1H-imidazol-4-yl)methyl)(methyl)amino)phenyl)-N4,N4-dimethylbenzene-1,4-disulfonamide]	8980
COCC1(C)CCC(N(C)c2ccccc2NS(=O)(=O)c2ccc(S(=O)(=O)N(C)C)cc2)CC1 (centres unmarked) [Compound 42, N1-(2-((4-(methoxymethyl)-4-methylcyclohexyl)(methyl)amino)phenyl)-N4,N4-dimethylbenzene-1,4-disulfonamide]	820
CN(c1cc(F)ccc1NS(=O)(=O)c1ccc(S(=O)(=O)N(C)C)cc1)C1CCCCC1 [Compound 4, N1-(2-(cyclohexyl(methyl)amino)-4-fluorophenyl)-N4,N4-dimethylbenzene-1,4-disulfonamide]	2210
CN(c1c(Cl)cccc1NS(=O)(=O)c1ccc(S(=O)(=O)N(C)C)cc1)C1CCCCC1 [Compound 38, N1-(3-chloro-2-(cyclohexyl(methyl)amino)phenyl)-N4,N4-dimethylbenzene-1,4-disulfonamide]	240
COCCCN(C)c1ccccc1NS(=O)(=O)c1ccc(S(=O)(=O)N(C)C)cc1 [Compound 34, N1-(2-((3-methoxypropyl)(methyl)amino)phenyl)-N4,N4-dimethylbenzene-1,4-disulfonamide]	3200
CN(c1ccccc1NS(=O)(=O)c1ccc(S(=O)(=O)N(C)C)cc1)C1CCC(F)(F)CC1 [Compound 41, N1-(2-((4,4-difluorocyclohexyl) (methyl)amino)phenyl)-N4,N4-dimethylbenzene-1,4-disulfonamide]	270
CCN(c1ccccc1NS(=O)(=O)c1ccc(S(=O)(=O)N(C)C)cc1)C1CCCCC1 [Compound 60, N1-(2-(cyclohexyl(ethyl)amino)phenyl)-N4,N4-dimethylbenzene-1,4-disulfonamide]	86.7
CN(Cc1ccccn1)c1ccccc1NS(=O)(=O)c1ccc(S(=O)(=O)N(C)C)cc1 [Compound 46, N1,N1-dimethyl-N4-(2-(methyl(pyridin-2-ylmethyl)amino)phenyl)benzene-1,4-disulfonamide]	2560
CN(c1ccc(F)cc1NS(=O)(=O)c1ccc(S(=O)(=O)N(C)C)cc1)C1CCCCC1 [Compound 53, N1-(2-(cyclohexyl(methyl)amino)-5-fluorophenyl)-N4,N4-dimethylbenzene-1,4-disulfonamide]	1060
Cc1cccc(N(C)C2CCCCC2)c1NS(=O)(=O)c1ccc(S(=O)(=O)N(C)C)cc1 [Compound 36, N1-(2-(cyclohexyl(methyl)amino)-6-methylphenyl)-N4,N4-dimethylbenzene-1,4-disulfonamide]	2180
CN(c1ccccc1)c1ccccc1NS(=O)(=O)c1ccc(S(=O)(=O)N(C)C)cc1 [Compound 27, N1,N1-dimethyl-N4-(2-(methyl(phenyl)amino)phenyl)benzene-1,4-disulfonamide]	> 10000
CN(Cc1ccc(F)cn1)c1ccccc1NS(=O)(=O)c1ccc(S(=O)(=O)N(C)C)cc1 [Compound 43, N1-(2-(((5-fluoropyridin-2-yl)methyl)(methyl)amino)phenyl)-N4,N4-dimethylbenzene-1,4-disulfonamide]	880
CN(c1ccccc1NS(=O)(=O)c1ccc(S(=O)(=O)N(C)C)cc1)C1CCC1 [Compound 37, N1-(2-(cyclobutyl(methyl)amino)phenyl)-N4,N4-dimethylbenzene-1,4-disulfonamide]	750

Next, values leading:

EC50 [nM]	SMILES
28500	CN(Cc1cnc2n1CCC2)c1ccccc1NS(=O)(=O)c1ccc(S(=O)(=O)N(C)C)cc1 [Compound 79, N1-(2-(((6,7-dihydro-5H-pyrrolo[1,2-a]imidazol-3-yl)methyl)(methyl)amino)phenyl)-N4,N4-dimethylbenzene-1,4-disulfonamide]
> 30000	CN(c1cccc(C#N)c1NS(=O)(=O)c1ccc(S(=O)(=O)N(C)C)cc1)C1CCCCC1 [Compound 86, N1-(2-cyano-6-(cyclohexyl(methyl)amino)phenyl)-N4,N4-dimethylbenzene-1,4-disulfonamide]
2140	CN(c1cc(C#N)ccc1NS(=O)(=O)c1ccc(S(=O)(=O)N(C)C)cc1)C1CCCCC1 [Compound 88, N1-(4-cyano-2-(cyclohexyl(methyl)amino)phenyl)-N4,N4-dimethylbenzene-1,4-disulfonamide]
3760	CCN(CC)c1ccccc1NS(=O)(=O)c1ccc(S(=O)(=O)N(C)C)cc1 [Compound 82, N1-(2-(diethylamino)phenyl)-N4,N4-dimethylbenzene-1,4-disulfonamide]
4020	CN(CCC1CCOCC1)c1ccccc1NS(=O)(=O)c1ccc(S(=O)(=O)N(C)C)cc1 [Compound 114, N1,N1-dimethyl-N4-(2-(methyl(2-(tetrahydro-2H-pyran-4-yl)ethyl)amino)phenyl)benzene-1,4-disulfonamide]
> 30000	CN(CCC1COC1)c1ccccc1NS(=O)(=O)c1ccc(S(=O)(=O)N(C)C)cc1 [Compound 62, N1,N1-dimethyl-N4-(2-(methyl(2-(oxetan-3-yl)ethyl)amino)phenyl)benzene-1,4-disulfonamide]
> 30000	CN(C)S(=O)(=O)c1ccc(S(=O)(=O)Nc2ccccc2N(C=O)Cc2cncs2)cc1 [Compound 61, N-(2-((4-(N,N-dimethylsulfamoyl)phenyl)sulfonamido)phenyl)-N-(thiazol-5-ylmethyl)formamide]
7440	CN(c1cccc(C(F)(F)F)c1NS(=O)(=O)c1ccc(S(=O)(=O)N(C)C)cc1)C1CCCCC1 [Compound 92, N1-(2-(cyclohexyl(methyl)amino)-6-(trifluoromethyl)phenyl)-N4,N4-dimethylbenzene-1,4-disulfonamide]
1400	CN(CCc1nccs1)c1ccccc1NS(=O)(=O)c1ccc(S(=O)(=O)N(C)C)cc1 [Compound 90, N1,N1-dimethyl-N4-(2-(methyl(2-(thiazol-2-yl)ethyl)amino)phenyl)benzene-1,4-disulfonamide]
1030	CN(c1cc(C(F)(F)F)ccc1NS(=O)(=O)c1ccc(S(=O)(=O)N(C)C)cc1)C1CCCCC1 [Compound 116, N1-(2-(cyclohexyl(methyl)amino)-4-(trifluoromethyl)phenyl)-N4,N4-dimethylbenzene-1,4-disulfonamide]
> 30000	CN(Cc1cn2c(n1)CCC2)c1ccccc1NS(=O)(=O)c1ccc(S(=O)(=O)N(C)C)cc1 [Compound 83, N1-(2-(((6,7-dihydro-5H-pyrrolo[1,2-a]imidazol-2-yl)methyl)(methyl)amino)phenyl)-N4,N4-dimethylbenzene-1,4-disulfonamide]
280	CN(c1c(NS(=O)(=O)c2ccc(S(=O)(=O)N(C)C)cc2)cccc1C(F)(F)F)C1CCCCC1 [Compound 109, N1-(2-(cyclohexyl(methyl)amino)-3-(trifluoromethyl)phenyl)-N4,N4-dimethylbenzene-1,4-disulfonamide]
5940	Cc1cnn(C)c1CN(C)c1ccccc1NS(=O)(=O)c1ccc(S(=O)(=O)N(C)C)cc1 [Compound 80, N1-(2-(((1,4-dimethyl-1H-pyrazol-5-yl)methyl)(methyl)amino)phenyl)-N4,N4-dimethylbenzene-1,4-disulfonamide]
